Legend:
[1] = molecular target: PI3K delta (Homo sapiens (Human), UniProt O00329); assay: Enzymatic PI3K delta isoform inhibition (lipid kinase activity, Kinase-Glo luminescence); format: biochemical; settings: Enzymatic assay
Protocol: (§1) 1.1 Test of Lipid Kinase Activity […]
(§2) In a more preferred assay, the kinase reaction is performed in a final volume of 10 μl per well of a low volume non-binding CORNING, 384 well black plate (Cat. No. #3676). The final concentrations of ATP and phosphatidyl inositol (PI) in the assay are 1 μM and 10 μg/mL, respectively. The reaction is started by the addition of ATP.
(§3) The components of the assay are added per well as follows:
(§4) The Z′ value is a universal measurement of the robustness of an assay. A Z′ between 0.5 and 1.0 is considered an excellent assay.
(§5) IC50 is determined by a four parameter curve fitting routine that comes along with “excel fit”. A four parameter logistic equation is used to calculate IC50 values (IDBS XLfit) of the percentage inhibition of each compound at 8 concentrations (usually 10, 3.0, 1.0, 0.3, 0.1, 0.030, 0.010 and 0.003 μM). Alternatively, IC50 values are calculated using idbsXLfit model 204, which is a 4 parameter logistic model.
(§6) Yet alternatively, for an ATP depletion assay, compounds of the formula I to be tested are dissolved in DMSO and directly distributed into a white 384-well plate at 0.5 μl per well. To start the reaction, 10 μl of 10 nM PI3 kinase and 5 μg/mL 1-alpha-phosphatidylinositol (PI) are added into each well followed by 10 μl of 2 μM ATP. The reaction is performed until approx 50% of the ATP is depleted, and then stopped by the addition of 20 μl of Kinase-Glo solution (Promega Corp., Madison, Wis., USA). The stopped reaction is incubated for 5 minutes and the remaining ATP is then detected via luminescence. IC50 values are then determined.

[2] = molecular target: PI3K alpha (Homo sapiens (Human), UniProt P42336); assay: Enzymatic PI3K alpha isoform inhibition (lipid kinase activity, Kinase-Glo luminescence); format: biochemical; settings: Enzymatic assay
Protocol: as §1, §2, §3, §4, §5, §6

Chain of PI3K delta (O00329 other isoform, or with tags, fused parts or gaps linker GGGGGG): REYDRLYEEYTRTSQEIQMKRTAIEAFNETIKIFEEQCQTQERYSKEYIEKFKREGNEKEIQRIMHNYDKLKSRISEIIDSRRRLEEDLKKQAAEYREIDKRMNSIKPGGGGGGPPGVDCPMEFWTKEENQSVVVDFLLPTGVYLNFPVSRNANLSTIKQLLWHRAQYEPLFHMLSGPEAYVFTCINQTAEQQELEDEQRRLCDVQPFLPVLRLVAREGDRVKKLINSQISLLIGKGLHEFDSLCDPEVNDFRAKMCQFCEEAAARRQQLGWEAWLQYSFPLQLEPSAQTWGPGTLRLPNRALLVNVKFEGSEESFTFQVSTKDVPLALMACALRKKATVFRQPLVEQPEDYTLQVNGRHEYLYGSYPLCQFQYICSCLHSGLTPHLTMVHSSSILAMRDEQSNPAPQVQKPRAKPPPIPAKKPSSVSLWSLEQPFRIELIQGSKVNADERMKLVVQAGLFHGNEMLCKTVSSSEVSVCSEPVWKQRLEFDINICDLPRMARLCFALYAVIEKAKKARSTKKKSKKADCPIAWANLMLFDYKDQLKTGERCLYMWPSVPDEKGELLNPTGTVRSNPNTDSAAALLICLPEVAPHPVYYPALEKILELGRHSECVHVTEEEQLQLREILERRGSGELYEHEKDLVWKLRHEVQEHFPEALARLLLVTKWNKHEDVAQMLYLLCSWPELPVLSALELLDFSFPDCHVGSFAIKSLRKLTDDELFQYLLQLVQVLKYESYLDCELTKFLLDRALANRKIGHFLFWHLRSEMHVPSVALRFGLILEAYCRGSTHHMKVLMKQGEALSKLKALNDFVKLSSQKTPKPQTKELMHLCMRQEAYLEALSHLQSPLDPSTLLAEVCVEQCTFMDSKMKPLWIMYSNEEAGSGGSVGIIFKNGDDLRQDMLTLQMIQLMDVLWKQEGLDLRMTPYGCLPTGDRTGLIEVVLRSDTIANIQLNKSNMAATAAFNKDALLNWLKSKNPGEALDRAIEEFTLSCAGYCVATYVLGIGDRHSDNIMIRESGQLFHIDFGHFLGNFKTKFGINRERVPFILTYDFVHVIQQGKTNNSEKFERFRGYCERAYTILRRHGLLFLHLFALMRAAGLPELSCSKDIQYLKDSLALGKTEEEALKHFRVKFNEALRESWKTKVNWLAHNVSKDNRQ
Chain of PI3K alpha (P42336 other isoform, or with tags, fused parts or gaps): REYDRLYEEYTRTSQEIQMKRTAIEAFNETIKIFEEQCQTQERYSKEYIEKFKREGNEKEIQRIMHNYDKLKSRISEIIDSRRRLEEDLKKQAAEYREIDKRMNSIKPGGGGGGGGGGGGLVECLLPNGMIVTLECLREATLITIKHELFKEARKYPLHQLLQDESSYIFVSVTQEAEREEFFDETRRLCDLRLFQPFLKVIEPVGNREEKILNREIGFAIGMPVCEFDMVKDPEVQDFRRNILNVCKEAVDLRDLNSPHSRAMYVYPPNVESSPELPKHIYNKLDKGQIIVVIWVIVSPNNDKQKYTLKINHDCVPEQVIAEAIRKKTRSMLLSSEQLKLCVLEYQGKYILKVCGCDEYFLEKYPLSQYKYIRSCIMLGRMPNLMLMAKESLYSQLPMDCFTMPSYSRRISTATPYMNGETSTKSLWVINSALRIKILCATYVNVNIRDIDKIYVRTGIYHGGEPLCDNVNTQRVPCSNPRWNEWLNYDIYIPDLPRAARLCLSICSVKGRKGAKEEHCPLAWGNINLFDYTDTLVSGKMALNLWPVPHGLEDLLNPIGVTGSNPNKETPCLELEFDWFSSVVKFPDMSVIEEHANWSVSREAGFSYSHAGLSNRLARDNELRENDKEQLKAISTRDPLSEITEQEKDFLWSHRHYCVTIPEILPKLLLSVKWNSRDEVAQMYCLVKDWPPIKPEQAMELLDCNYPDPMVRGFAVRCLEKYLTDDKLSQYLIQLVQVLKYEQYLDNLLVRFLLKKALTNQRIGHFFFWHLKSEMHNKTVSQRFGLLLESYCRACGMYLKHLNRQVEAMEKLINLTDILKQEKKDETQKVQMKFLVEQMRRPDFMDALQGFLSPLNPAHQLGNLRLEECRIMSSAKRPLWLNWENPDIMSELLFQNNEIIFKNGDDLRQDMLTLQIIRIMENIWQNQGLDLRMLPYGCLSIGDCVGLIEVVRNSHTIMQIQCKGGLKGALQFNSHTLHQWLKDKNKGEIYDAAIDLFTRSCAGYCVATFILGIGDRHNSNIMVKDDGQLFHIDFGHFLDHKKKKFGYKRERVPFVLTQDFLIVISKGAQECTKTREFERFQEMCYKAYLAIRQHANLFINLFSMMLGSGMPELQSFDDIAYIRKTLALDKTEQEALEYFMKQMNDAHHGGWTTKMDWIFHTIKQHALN

SMILES | IC50 [1] | IC50 [2]
COc1ncc(N2CCOc3ccc(O[C@H]4CCN(C(=O)C5CCS(=O)(=O)C5)C4)cc32)cc1C (single isomer, unassigned) [Example B27, (1,1-Dioxo-tetrahydro-1lambda*6*-thiophen-3-yl)-{(S)-3-[4-(6-methoxy-5-methyl-pyridin-3-yl)-3,4-dihydro-2H-benzo[1,4]oxazin-6-yloxy]-pyrrolidin-1-yl}-methanone] | 55 nM | 2510 nM
COc1ncc(N2CCOc3ccc(O[C@H]4CCN(C(=O)C5CCS(=O)(=O)C5)C4)cc32)cc1C (single isomer, unassigned) [Example B28, (1,1-Dioxo-tetrahydro-1lambda*6*-thiophen-3-yl)-{(S)-3-[4-(6-methoxy-5-methyl-pyridin-3-yl)-3,4-dihydro-2H-benzo[1,4]oxazin-6-yloxy]-pyrrolidin-1-yl}-methanone] | 12 nM | 788 nM
Cc1cc(N2CCOc3ccc(O[C@H]4CCN(C(=O)C5COCCO5)C4)cc32)cnc1S(C)(=O)=O (single isomer, unassigned) [Example H3] | 8 nM | 559 nM
Cc1cc(N2CCOc3ccc(O[C@H]4CCN(C(=O)C5COCCO5)C4)cc32)cnc1S(C)(=O)=O (single isomer, unassigned) [Example H4] | 11 nM | 848 nM
COc1ncc(N2CCOc3ccc(O[C@H]4CCN(C(=O)C5CCS(=O)(=O)C5)C4)cc32)cc1F (single isomer, unassigned) [Example H11] | 8 nM | 299 nM
COc1ncc(N2C[C@H](C)Oc3ccc(O[C@H]4CCN(C(=O)C5CCOCC5)C4)cc32)cc1C#N (single isomer, unassigned) [Example O2] | 49 nM | 5690 nM
Cc1ncc(N2CCOc3ccc(O[C@H]4CCN(C(=O)C5CCOCC5)C4)cc32)cc1[N+](=O)[O-] [Example A4, {(S)-3-[4-(6-Methyl-5-nitro-pyridin-3-yl)-3,4-dihydro-2H-benzo[1,4]oxazin-6-yloxy]-pyrrolidin-1-yl}-(tetrahydro-pyran-4-yl)-methanone] | – | > 9100 nM
COCc1ccc(N2CCOc3ccc(O[C@H]4CCN(C(=O)C5CCOCC5)C4)cc32)cn1 [Example A20, {(S)-3-[4-(6-Methoxymethyl-pyridin-3-yl)-3,4-dihydro-2H-benzo[1,4]oxazin-6-yloxy]-pyrrolidin-1-yl}-(tetrahydro-pyran-4-yl)-methanone] | – | > 9100 nM
O=C(C1CCOCC1)N1CC[C@H](Oc2ccc3c(c2)N(c2ccnc(C(F)(F)F)c2)CCO3)C1 [Example A21, (Tetrahydro-pyran-4-yl)-{(S)-3-[4-(2-trifluoromethyl-pyridin-4-yl)-3,4-dihydro-2H-benzo[1,4]oxazin-6-yloxy]-pyrrolidin-1-yl}-methanone] | – | 8430 nM
CCC(=O)N1CC[C@H](Oc2ccc3c(c2)N(c2ccc(OC)c(S(=O)(=O)N4CCOCC4)c2)CCO3)C1 [Example A25, 1-((S)-3-{4-[4-Methoxy-3-(morpholine-4-sulfonyl)-phenyl]-3,4-dihydro-2H-benzo[1,4]oxazin-6-yloxy}-pyrrolidin-1-yl)-propan-1-one] | – | 5760 nM
CCC(=O)N1CC[C@H](Oc2ccc3c(c2)N(c2ccc(OC)c(S(=O)(=O)N4CCN(C)CC4)c2)CCO3)C1 [Example A27, 1-((S)-3-{4-[4-Methoxy-3-(4-methyl-piperazine-1-sulfonyl)-phenyl]-3,4-dihydro-2H-benzo[1,4]oxazin-6-yloxy}-pyrrolidin-1-yl)-propan-1-one] | – | > 9100 nM
CN(C)c1cc(N2CCOc3ccc(O[C@H]4CCN(C(=O)C5CCOCC5)C4)cc32)cnc1S(C)(=O)=O [Example B78, {(S)-3-[4-(5-Dimethylamino-6-methanesulfonyl-pyridin-3-yl)-3,4-dihydro-2H-benzo[1,4]oxazin-6-yloxy]-pyrrolidin-1-yl}-(tetrahydro-pyran-4-yl)-methanone] | – | 243 nM
COc1ncc(N2CCOc3ccc(N[C@H]4CCN(C(=O)C5CCOCC5)C4)cc32)cc1C#N [Y, 2-Methoxy-5-{6-[(S)-1-(tetrahydro-pyran-4-carbonyl)-pyrrolidin-3-ylamino]-2,3-dihydro-benzo[1,4]oxazin-4-yl}-nicotinonitrile] | – | 1920 nM

The next lines start with the values.

IC50 [1] | IC50 [2] | SMILES
5 nM | 411 nM | COc1ncc(N2CCOc3ccc(O[C@H]4CCN(C(=O)C5CCOC5)C4)cc32)cc1C#N (single isomer, unassigned) [Example D28]
3 nM | 534 nM | COc1ncc(N2CCOc3ccc(O[C@H]4CCN(C(=O)C5CCOC5)C4)cc32)cc1C#N (single isomer, unassigned) [Example D29]
< 3 nM | 414 nM | COc1ncc(N2CCOc3ccc(O[C@H]4CCN(C(=O)C5CCC(OC)CC5)C4)cc32)cc1C#N (single isomer, unassigned) [Example D35]
– | 346 nM | COc1ncc(N2CCOc3ccc(O[C@H]4CCN(C(=O)C5CCC(OC)CC5)C4)cc32)cc1C#N (single isomer, unassigned) [Example D36]
11 nM | 477 nM | COc1cc(N2CCOc3ccc(O[C@H]4CCN(C(=O)C5COCCO5)C4)cc32)cnc1OC (single isomer, unassigned) [Example H5]
53 nM | 846 nM | COc1cc(N2CCOc3ccc(O[C@H]4CCN(C(=O)C5COCCO5)C4)cc32)cnc1OC (single isomer, unassigned) [Example H6]
11 nM | 616 nM | COc1cc(N2CCOc3ccc(O[C@H]4CCN(C(=O)C5CCS(=O)(=O)C5)C4)cc32)cnc1OC (single isomer, unassigned) [Example H9]
18 nM | 727 nM | COc1cc(N2CCOc3ccc(O[C@H]4CCN(C(=O)C5CCS(=O)(=O)C5)C4)cc32)cnc1OC (single isomer, unassigned) [Example H10]
7 nM | 530 nM | COc1ncc(N2CCOc3ccc(O[C@H]4CCN(C(=O)C5CCS(=O)(=O)C5)C4)cc32)cc1F (single isomer, unassigned) [Example H12]
9 nM | 387 nM | COc1ncc(N2CCOc3ccc(O[C@H]4CCN(C(=O)C5CCS(=O)(=O)C5)C4)cc32)cc1Cl (single isomer, unassigned) [Example H13]
5 nM | 103 nM | COc1ncc(N2CCOc3ccc(O[C@H]4CCN(C(=O)C5CCS(=O)(=O)C5)C4)cc32)cc1Cl (single isomer, unassigned) [Example H14]
8 nM | 724 nM | COc1ncc(N2CCOc3ccc(O[C@H]4CCN(C(=O)C5COCCO5)C4)cc32)cc1F (single isomer, unassigned) [Example H15]
16 nM | 871 nM | COc1ncc(N2CCOc3ccc(O[C@H]4CCN(C(=O)C5COCCO5)C4)cc32)cc1F (single isomer, unassigned) [Example H16]
– | > 9100 nM | CCC(=O)N1CC[C@H](Oc2ccc3c(c2)N(c2ccnc(C#N)c2)CCO3)C1 [Example B3, 4-[6-((S)-1-Propionyl-pyrrolidin-3-yloxy)-2,3-dihydro-benzo[1,4]oxazin-4-yl]-pyridine-2-carbonitrile]
15.5 nM | – | [2H]C1([2H])COc2ccc(O[C@H]3CCN(C(=O)c4cn(C)cn4)C3)cc2N1c1cnc(OC)c(C#N)c1 [Example B30, 2-Methoxy-5-{6-[(S)-1-(1-methyl-1H-imidazole-4-carbonyl)-pyrrolidin-3-yloxy]-3,3-dideutero-2,3-dihydro-benzo[1,4]oxazin-4-yl}-nicotinonitrile]
– | > 9100 nM | COc1ncc(N2CCOc3ccc(O[C@H]4CCN(C(=O)c5cnon5)C4)cc32)cc1C#N [Example C7, 5-{6-[(S)-1-(Furazan-3-carbonyl)-pyrrolidin-3-yloxy]-2,3-dihydro-benzo[1,4]oxazin-4-yl}-2-methoxy-nicotinonitrile]
– | 236 nM | COc1ncc(N2CCOc3ccc(O[C@H]4CCN(C(=O)C5CCOCC5)C4)cc32)cc1C#N [Example D4, 2-Methoxy-5-{6-[(S)-1-(tetrahydro-pyran-4-carbonyl)-pyrrolidin-3-yloxy]-2,3-dihydro-benzo[1,4]oxazin-4-yl}-nicotinonitrile]
– | 234 nM | COc1ncc(N2CCOc3ccc(O[C@H]4CCN(C(=O)CN5CCOCC5)C4)cc32)cc1C#N [Example D7, 2-Methoxy-5-{6-[(S)-1-(2-morpholin-4-yl-acetyl)-pyrrolidin-3-yloxy]-2,3-dihydro-benzo[1,4]oxazin-4-yl}-nicotinonitrile]
– | 415 nM | COc1ncc(N2CCOc3ccc(O[C@H]4CCN(C(=O)C5CCN(C)CC5)C4)cc32)cc1C#N [Example D14, 2-Methoxy-5-{6-[(S)-1-(1-methyl-piperidine-4-carbonyl)-pyrrolidin-3-yloxy]-2,3-dihydro-benzo[1,4]oxazin-4-yl}-nicotinonitrile]
